Assay results published in paper PMC8092523 (Antimicrobial Agents and Chemotherapy, 2021).

Assays:
[1] = tested on: mc^27000:Δc− strain with pYL60 or pYL3; type: cell-based, M. tuberculosis
pYL42 and pYL53 strains = type: cell-based, Mycobacterium smegmatis

CN[C@@H]1[C@H](O)[C@H](NC)[C@H]2O[C@]3(O)[C@H](O[C@@H]2[C@H]1O)O[C@H](C)C[C@H]3NC(=O)Cc1ccc(Cl)cn1 [Spa]
bactericidal activity against pYL60 strain compared with pYL3 control strain [1]: significantly decreased
bactericidal activity against pYL53 compared with pYL42 strain (pYL42 and pYL53 strains): at least an order of magnitude lower
